Values quoted from earlier work, collected in patent US20070207944A1, “Blood Pressure Lowering Oligopeptides” (priority 2004, published 2007).
pIC50: −log10 of the molar value.

Tests used:
[1] = target: ACE (Homo sapiens, UniProt P12821); settings: for ACE inhibiting activity: in vitro, as reported in the literature
[2] = test system: spontaneously hypertensive rats; settings: Nakamura et al. 1995, tripeptides from fermented milk

ACE, sequence (P12821 30-1306, species assumed): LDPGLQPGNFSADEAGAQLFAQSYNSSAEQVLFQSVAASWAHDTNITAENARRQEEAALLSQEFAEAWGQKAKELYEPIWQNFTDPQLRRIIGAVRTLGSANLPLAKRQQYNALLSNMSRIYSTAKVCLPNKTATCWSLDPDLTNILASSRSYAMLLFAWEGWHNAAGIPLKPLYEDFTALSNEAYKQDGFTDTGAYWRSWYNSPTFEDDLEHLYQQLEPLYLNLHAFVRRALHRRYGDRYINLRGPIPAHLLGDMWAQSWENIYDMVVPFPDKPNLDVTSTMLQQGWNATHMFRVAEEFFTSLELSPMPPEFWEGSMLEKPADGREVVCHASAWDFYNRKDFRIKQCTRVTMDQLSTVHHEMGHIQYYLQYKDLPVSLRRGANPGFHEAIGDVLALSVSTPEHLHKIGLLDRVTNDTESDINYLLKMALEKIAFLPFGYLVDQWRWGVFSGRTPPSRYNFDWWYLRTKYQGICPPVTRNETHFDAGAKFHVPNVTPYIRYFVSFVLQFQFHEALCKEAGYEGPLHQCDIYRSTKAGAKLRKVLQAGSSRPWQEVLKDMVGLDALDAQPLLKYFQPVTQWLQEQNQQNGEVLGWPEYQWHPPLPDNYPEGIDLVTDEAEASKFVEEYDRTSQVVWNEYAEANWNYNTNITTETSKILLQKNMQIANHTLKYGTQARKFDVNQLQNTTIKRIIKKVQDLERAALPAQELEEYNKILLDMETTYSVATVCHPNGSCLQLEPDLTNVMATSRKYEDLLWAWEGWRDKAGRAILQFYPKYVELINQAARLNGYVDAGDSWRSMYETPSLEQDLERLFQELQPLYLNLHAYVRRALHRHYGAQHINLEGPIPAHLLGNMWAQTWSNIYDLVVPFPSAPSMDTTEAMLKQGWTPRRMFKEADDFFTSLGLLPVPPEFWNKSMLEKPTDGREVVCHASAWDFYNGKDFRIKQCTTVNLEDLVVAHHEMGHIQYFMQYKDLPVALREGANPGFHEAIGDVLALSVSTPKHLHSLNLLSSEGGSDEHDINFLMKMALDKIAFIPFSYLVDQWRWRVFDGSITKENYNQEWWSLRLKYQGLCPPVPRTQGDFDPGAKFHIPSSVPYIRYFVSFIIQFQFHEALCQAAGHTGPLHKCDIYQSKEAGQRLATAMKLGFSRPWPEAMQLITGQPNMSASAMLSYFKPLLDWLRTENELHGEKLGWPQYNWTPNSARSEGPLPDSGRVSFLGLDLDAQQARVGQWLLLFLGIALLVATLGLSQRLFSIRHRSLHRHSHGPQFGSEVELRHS

Substance | ACE inhibiting activity [1] | antihypertensive effects [2] | pIC50 ([1]; reported by EP 0 583 074, read-out: IC50 value (ACE inhibition))
Ile-Pro-Pro [IPP] | Strong ACE inhibiting activities | could be confirmed | –
Leu-Pro-Pro [LPP] | Strong ACE inhibiting activities | – | –
Val-Pro-Pro [VPP] | Strong ACE inhibiting activities | could be confirmed | 5.05
